The results in this text go back to ChEMBL document CHEMBL3046957, “Synthesis of new oxadiazole derivatives as anti-inflammatory, analgesic, and antimicrobial agents” (2013).

Assay type in all cases: functional
The subject of experiment [1] is Staphylococcus aureus. The experiment is described as follows: Antibacterial activity against Staphylococcus aureus assessed as growth inhibition at 50 ug/mL after 24 to 48 hr by cup-plate method. Conditions: read-out: DIZ.
Experiment [2] concerns Escherichia coli. The experiment is described as follows: Antibacterial activity against Escherichia coli assessed as growth inhibition at 100 ug/mL after 24 to 48 hr by cup-plate method. Conditions: read-out: DIZ.
The test system of experiment [3] is Rattus norvegicus. Nature of the experiment: Anti-inflammatory activity in Wistar albino Rattus norvegicus (rat) assessed as inhibition of carrageenan-induced paw edema at 10 mg/kg, po administered 30 min prior to carrageenan challenge measured after 1 hr by plethysmometric analysis relative to untreated control. Background: The carrageenan paw model is a standard test of acute inflammation.

The test system of experiment [4] is Pseudomonas aeruginosa. The experiment is described as follows: Antibacterial activity against Pseudomonas aeruginosa assessed as growth inhibition at 50 ug/mL after 24 to 48 hr by cup-plate method. The following applies: read-out: DIZ.
In experiment [5] the test system is Candida albicans. The experiment is described as follows: Antifungal activity against Candida albicans assessed as growth inhibition at 100 ug/mL after 24 hr by cup-plate method. The following applies: read-out: DIZ.
Experiment [6] relates to Staphylococcus aureus. Nature of the experiment: Antibacterial activity against Staphylococcus aureus assessed as growth inhibition at 100 ug/mL after 24 to 48 hr by cup-plate method. The following applies: read-out: DIZ.
Experiment [7] concerns Mus musculus. The experiment is described as follows: Analgesic activity in Swiss albino Mus musculus (mouse) assessed as latency time of heat-induced paw licking/jumping behaviour at 10 mg/kg after 0.5 hr by Eddy's hot plate method (reference value: 4.17 +/- 0.04 secs). On the technique in general: Hot-plate and tail-flick tests time the reaction to a heat stimulus.
In experiment [8] the test system is Rattus norvegicus. Nature of the experiment: Anti-inflammatory activity in Wistar albino Rattus norvegicus (rat) assessed as inhibition of carrageenan-induced paw edema at 10 mg/kg, po administered 30 min prior to carrageenan challenge measured after 1.5 hr by plethysmometric analysis relative to untreated control.
In experiment [9] the test system is Pseudomonas aeruginosa. The experiment is described as follows: Antibacterial activity against Pseudomonas aeruginosa assessed as growth inhibition at 100 ug/mL after 24 to 48 hr by cup-plate method. The following applies: read-out: DIZ.
Experiment [10] has as its system Mus musculus. The experiment is described as follows: Analgesic activity in Swiss albino Mus musculus (mouse) assessed as latency time of heat-induced paw licking/jumping behaviour at 10 mg/kg after 2 hr by Eddy's hot plate method (reference value: 4.86 +/- 0.18 secs).
Experiment [11] relates to Bacillus subtilis. The experiment is described as follows: Antibacterial activity against Bacillus subtilis assessed as growth inhibition at 100 ug/mL after 24 to 48 hr by cup-plate method. Conditions: read-out: DIZ.
Experiment [12] relates to Escherichia coli. Nature of the experiment: Antibacterial activity against Escherichia coli assessed as growth inhibition at 50 ug/mL after 24 to 48 hr by cup-plate method. Conditions: read-out: DIZ.
Experiment [13] concerns Aspergillus niger. Nature of the experiment: Antifungal activity against Aspergillus niger assessed as growth inhibition at 50 ug/mL after 24 hr by cup-plate method. The following applies: read-out: DIZ.
Experiment [14] deals with Aspergillus niger. Nature of the experiment: Antifungal activity against Aspergillus niger assessed as growth inhibition at 100 ug/mL after 24 hr by cup-plate method. Conditions: read-out: DIZ.
Experiment [15] relates to Rattus norvegicus. Nature of the experiment: Anti-inflammatory activity in Wistar albino Rattus norvegicus (rat) assessed as inhibition of carrageenan-induced paw edema at 10 mg/kg, po administered 30 min prior to carrageenan challenge measured after 2 hr by plethysmometric analysis relative to untreated control.
Experiment [16] has as its system Candida albicans. Nature of the experiment: Antifungal activity against Candida albicans assessed as growth inhibition at 50 ug/mL after 24 hr by cup-plate method. The following applies: read-out: DIZ.
The test system of experiment [17] is Bacillus subtilis. The experiment is described as follows: Antibacterial activity against Bacillus subtilis assessed as growth inhibition at 50 ug/mL after 24 to 48 hr by cup-plate method. Conditions: read-out: DIZ.
The test system of experiment [18] is Rattus norvegicus. Nature of the experiment: Anti-inflammatory activity in Wistar albino Rattus norvegicus (rat) assessed as inhibition of carrageenan-induced paw edema at 10 mg/kg, po administered 30 min prior to carrageenan challenge measured after 0.5 hr by plethysmometric analysis relative to untreated control.
In experiment [19] the test system is Rattus norvegicus. Nature of the experiment: Anti-inflammatory activity in Wistar albino Rattus norvegicus (rat) assessed as inhibition of carrageenan-induced paw edema at 10 mg/kg, po administered 30 min prior to carrageenan challenge measured after 3 hr by plethysmometric analysis relative to untreated control.
Experiment [20] concerns Mus musculus. The experiment is described as follows: Analgesic activity in Swiss albino Mus musculus (mouse) assessed as latency time of heat-induced paw licking/jumping behaviour at 10 mg/kg after 4 hr by Eddy's hot plate method (reference value: 4.57 +/- 0.11 secs).
Experiment [21] has as its system Mus musculus. The experiment is described as follows: Analgesic activity in Swiss albino Mus musculus (mouse) assessed as latency time of heat-induced paw licking/jumping behaviour at 10 mg/kg after 1 hr by Eddy's hot plate method (reference value: 4.74 +/- 0.21 secs).

As a reminder, the inhibition in vivo is the drop in the measured response relative to a control, in per cent. For the molecule `COC(=O)CCCn1nc(-c2cccc(-c3cc(F)ccc3OC)c2)oc1=O`, the zone of inhibition at 50 µg/mL in the experiment with Staphylococcus aureus [1] is 11 mm; in the experiment on Pseudomonas aeruginosa [4], 11 mm; in the experiment with Escherichia coli [12], 10 mm; in the experiment with Aspergillus niger [13], 11 mm; with Candida albicans [16] it was 11 mm; in the experiment with Bacillus subtilis [17], 10 mm. Besides, the zone of inhibition at 100 µg/mL in the experiment with Escherichia coli [2] worked out at 18 mm; in the experiment on Candida albicans [5], 17 mm; in the experiment on Staphylococcus aureus [6] it was 18 mm; in the experiment on Pseudomonas aeruginosa [9] it was 14 mm; with Bacillus subtilis [11], 13 mm; in the experiment with Aspergillus niger [14], 16 mm. Further, the inhibition in vivo at 10 mg/kg was found to be 45% in the experiment on Rattus norvegicus [3]; 61% with Rattus norvegicus [8]; 74% with Rattus norvegicus [15]; 31% in the experiment with Rattus norvegicus [18]; 87% in the experiment on Rattus norvegicus [19]. Also, the Time in the experiment with Mus musculus [7] came to 5.51 s; in the experiment on Mus musculus [10] it was 7.81 s; in the experiment on Mus musculus [20], 7.28 s; in the experiment on Mus musculus [21], 5.84 s.
For the molecule `COc1ccc(F)cc1-c1cccc(-c2nn(CCOC3CCCCO3)c(=O)o2)c1` (configuration not stated), the zone of inhibition at 50 µg/mL with Staphylococcus aureus [1] was found to be 9 mm; in the experiment with Pseudomonas aeruginosa [4], 18 mm; in the experiment on Escherichia coli [12], 9 mm; with Aspergillus niger [13] it was 8 mm; in the experiment on Candida albicans [16], 9 mm; in the experiment with Bacillus subtilis [17], 11 mm. Besides, the zone of inhibition at 100 µg/mL in the experiment on Escherichia coli [2] is 16 mm; with Candida albicans [5], 9 mm; with Staphylococcus aureus [6], 14 mm; in the experiment with Pseudomonas aeruginosa [9] it was 21 mm; in the experiment on Bacillus subtilis [11], 15 mm; in the experiment with Aspergillus niger [14], 11 mm. Moreover, the inhibition in vivo at 10 mg/kg was 32% with Rattus norvegicus [3]; 44% with Rattus norvegicus [8]; 56% in the experiment with Rattus norvegicus [15]; 16% with Rattus norvegicus [18]; 65% with Rattus norvegicus [19]. The Time is 4.81 s in the experiment on Mus musculus [7], 4.58 s with Mus musculus [10], 4.21 s in the experiment with Mus musculus [20] and 4.21 s in the experiment with Mus musculus [21].
Consider `COC1=CC(=O)C[C@@H](C)[C@]12Oc1c(Cl)c(OC)cc(OC)c1C2=O` [GRISEOFULVIN], for which the zone of inhibition at 100 µg/mL in the experiment on Candida albicans [5] was 35 mm; in the experiment on Aspergillus niger [14], 37 mm. The results for the zone of inhibition at 50 µg/mL in the experiment with Aspergillus niger [13] and in the experiment on Candida albicans [16] were 22 mm and 20 mm, respectively.
For `O=C(O)Cc1ccccc1Nc1c(Cl)cccc1Cl` [DICLOFENAC SODIUM], the inhibition in vivo at 10 mg/kg was determined as 49% with Rattus norvegicus [3]; 65% in the experiment with Rattus norvegicus [8]; 77% with Rattus norvegicus [15]; 35% with Rattus norvegicus [18]; 90% in the experiment on Rattus norvegicus [19].
With `COc1ccc(F)cc1-c1cccc(-c2nn(CCO)c(=O)o2)c1`, the zone of inhibition at 50 µg/mL in the experiment with Staphylococcus aureus [1] was determined as 14 mm; in the experiment with Pseudomonas aeruginosa [4], 18 mm; in the experiment with Escherichia coli [12] it was 18 mm; with Aspergillus niger [13] it was 9 mm; in the experiment on Candida albicans [16], 4 mm; with Bacillus subtilis [17] it was 13 mm. Moreover, the zone of inhibition at 100 µg/mL is 19 mm in the experiment with Escherichia coli [2]; 8 mm in the experiment on Candida albicans [5]; 16 mm with Staphylococcus aureus [6]; 20 mm in the experiment with Pseudomonas aeruginosa [9]; 18 mm in the experiment on Bacillus subtilis [11]; 10 mm with Aspergillus niger [14]. The inhibition in vivo at 10 mg/kg with Rattus norvegicus [3] was 41%; with Rattus norvegicus [8], 53%; in the experiment on Rattus norvegicus [15], 69%; in the experiment with Rattus norvegicus [18], 28%; in the experiment with Rattus norvegicus [19], 75%. Also, the Time with Mus musculus [7] is on record as 4.96 s; in the experiment with Mus musculus [10], 6.88 s; with Mus musculus [20], 5.59 s; in the experiment on Mus musculus [21] it was 4.36 s.
Turning to `CN[C@@H]1[C@H](O[C@H]2[C@H](O[C@H]3[C@H](O)[C@@H](O)[C@H](N=C(N)N)[C@@H](O)[C@@H]3N=C(N)N)O[C@@H](C)[C@]2(O)C=O)O[C@@H](CO)[C@H](O)[C@H]1O` [STREPTOMYCIN], the zone of inhibition at 100 µg/mL in the experiment with Escherichia coli [2] and in the experiment on Pseudomonas aeruginosa [9] was 25 mm each time. Besides, the zone of inhibition at 50 µg/mL with Pseudomonas aeruginosa [4] and with Escherichia coli [12] was 21 mm each time.
For `COc1ccc(F)cc1-c1cccc(-c2nn(CCOS(=O)(=O)c3ccc(Cl)c(Cl)c3)c(=O)o2)c1`, the zone of inhibition at 50 µg/mL amounted to 12 mm with Staphylococcus aureus [1]; 12 mm in the experiment with Pseudomonas aeruginosa [4]; 12 mm in the experiment on Escherichia coli [12]; 7 mm in the experiment on Aspergillus niger [13]; 3 mm in the experiment on Candida albicans [16]; 10 mm in the experiment with Bacillus subtilis [17]. For the same molecule, the zone of inhibition at 100 µg/mL in the experiment on Escherichia coli [2] worked out at 19 mm; in the experiment with Candida albicans [5], 9 mm; in the experiment with Staphylococcus aureus [6] it was 15 mm; in the experiment with Pseudomonas aeruginosa [9], 15 mm; with Bacillus subtilis [11] it was 17 mm; with Aspergillus niger [14], 10 mm. For the same molecule, the inhibition in vivo at 10 mg/kg turned out to be 39% in the experiment with Rattus norvegicus [3]; 51% with Rattus norvegicus [8]; 64% with Rattus norvegicus [15]; 25% in the experiment with Rattus norvegicus [18]; 66% in the experiment on Rattus norvegicus [19]. Further, the Time in the experiment on Mus musculus [7] is on record as 4.95 s; in the experiment with Mus musculus [10] it was 5.72 s; with Mus musculus [20] it was 5.55 s; in the experiment on Mus musculus [21] it was 4.48 s.
For `COc1ccc(F)cc1-c1cccc(-c2nn(CCCCF)c(=O)o2)c1`, the zone of inhibition at 50 µg/mL stood at 19 mm in the experiment on Staphylococcus aureus [1]; 18 mm with Pseudomonas aeruginosa [4]; 17 mm in the experiment with Escherichia coli [12]; 9 mm in the experiment with Aspergillus niger [13]; 8 mm in the experiment on Candida albicans [16]; 20 mm in the experiment with Bacillus subtilis [17]. For the same molecule, the zone of inhibition at 100 µg/mL in the experiment on Escherichia coli [2] stood at 20 mm; in the experiment on Candida albicans [5], 11 mm; in the experiment on Staphylococcus aureus [6], 25 mm; in the experiment on Pseudomonas aeruginosa [9], 21 mm; with Bacillus subtilis [11] it was 24 mm; in the experiment with Aspergillus niger [14], 10 mm. The inhibition in vivo at 10 mg/kg in the experiment on Rattus norvegicus [3] worked out at 51%; in the experiment on Rattus norvegicus [8], 67%; in the experiment with Rattus norvegicus [15], 83%; in the experiment with Rattus norvegicus [18], 36%; in the experiment with Rattus norvegicus [19], 95%. Also, the Time in the experiment with Mus musculus [7] is 5.55 s; with Mus musculus [10] it was 7.88 s; with Mus musculus [20] it was 7.04 s; in the experiment on Mus musculus [21], 5.24 s.
In the case of `CC(C)=CCN1CCC2(C)c3cc(O)ccc3CC1C2C` (configuration not stated) [PENTAZOCINE], the Time in the experiment with Mus musculus [7] is given as 5.58 s; in the experiment with Mus musculus [10], 8.06 s; in the experiment with Mus musculus [20] it was 7.85 s; in the experiment on Mus musculus [21], 5.93 s.
